Calls of active or inactive are those of the source. The calls are words filed in the database; no cut-off is given here.
How the values were obtained:
HEK-293T = assay: Selectivity ratio of IC50 for soluble truncated human recombinant 6His-tagged alpha5beta1 and integrins were expressed in HEK293T cells to IC50 for soluble truncated human recombinant Fc-tagged alphaVbeta3 and integrins; format: cell-based
Integrin alpha-V/beta-3 [1] = molecular target: T1, Integrin alpha-V/beta-3 (Homo sapiens, UniProt P05106+P06756); assay: Activation of alphaVbeta3 integrin in HUVEC at 10 uM by flow cytometry; format: protein-complex assay
Integrin alpha-V/beta-3 [2] = molecular target: T1, Integrin alpha-V/beta-3; assay: Binding affinity to soluble truncated human recombinant Fc-tagged alphaVbeta3 and integrins were expressed in HEK293T cells after 2 hrs by competition ELISA-like assay; format: cell-based, HEK-293T
Integrin alpha-5/beta-1 = Integrin alpha-5/beta-1 (Homo sapiens, UniProt P05556+P08648); assay: Binding affinity to soluble truncated human recombinant 6His-tagged alpha5beta1 and integrins were expressed in HEK293T cells after 2 hrs by competition ELISA-like assay; format: cell-based, HEK-293T

| Activity (Integrin alpha-V/beta-3 [1]) | IC50 (Integrin alpha-V/beta-3 [2]) | IC50 (Integrin alpha-5/beta-1) | Compound | Ratio IC50 (HEK-293T) |
| --- | --- | --- | --- | --- |
| Active |  |  | N=C(N)NCCC[C@@H]1NC(=O)[C@H](CCCCn2cc(CCC(=O)Nc3ccc(F)cc3)nn2)NC(=O)[C@@H](Cc2ccccc2)NC(=O)[C@H](CC(=O)O)NC(=O)CNC1=O | 300 |
|  | 0.0106 µM | 3.65 µM | NC(N)=NCCC[C@@H]1NC(=O)[C@H](CCCCn2cc(CCC(=O)Nc3ccc(F)cc3)nn2)NC(=O)[C@@H](Cc2ccccc2)NC(=O)[C@H](CC(=O)O)NC(=O)CNC1=O |  |

Reference: ChEMBL document CHEMBL2440079, “Synthesis and in vitro evaluation of a novel radioligand for αvβ3 integrin receptor imaging: [18F]FPPA-c(RGDfK)” (Bioorg Med Chem Lett, 2013)
